From patent publication US5945436A, “Pyridylmethyl nitriles, amides and thioamides useful as fungicides” (Uniroyal Chemical Company, Inc., priority 1997, dated 1999)

Experiments:
Pythium ultimum = test: Fungal growth inhibition, treated disc on agar (PYT ULT); type: cell-based; conditions: disc dipped in 500 mg/l, 29° C.; for inhibition at 500 µg/mL: Globisporangium ultimum, read-out: Percent Growth Inhibition, PYT ULT
Rhizoctonia solani = test: Fungal growth inhibition, treated disc on agar (RHI SOL); type: cell-based; conditions: disc dipped in 500 mg/l, 29° C.; for inhibition at 500 µg/mL: Rhizoctonia solani, read-out: Percent Growth Inhibition, RHI SOL
Scierotinia minor = test: Fungal growth inhibition, treated disc on agar (SCL MIN); type: cell-based; conditions: disc dipped in 500 mg/l, 29° C.; for inhibition at 500 µg/mL: read-out: Percent Growth Inhibition, SCL MIN
Text: (§1) Filter paper discs, each 11 mm. in diameter, were dipped in each of the test solutions. The discs were allowed to air dry to drive off the acetone solvent. A number of untreated discs were used as controls.
(§2) The treated and untreated discs were then placed on agar plates and one of the following fungus species: Septoria nodorum (SEP NOD), Botrytis cinerea (BOT CIN), Fusarium oxysporum (FUS OXY), Pythium ultimum (PYT ULT), Rhizoctonia solani (RHI SOL), Colletotrichum gossypii (COL GOS), and Scierotinia minor (SCL MIN), was added to the center of each disc in the form of a culture plug with the fungus mat in contact with the paper of the test disc. Cercosporidium personatum (CER PER), was added to discs as a spore suspension (20,000 spores/ml) to the disc (two drops of spore suspension per disc), rather than a mycelial culture plug. The plates were then incubated at 29° C. in an oven.
(§3) With the exception of the discs containing Cercosporidium personatum, the discs were evaluated by first measuring the radius from the center of the fungus colony on the treated discs and on the untreated discs. Percent growth inhibition of each of the compounds tested was determined as a function of the difference between the radius of the fungus colony on the treated disc versus the radius of the fungus colony on the untreated disc.

Colletotrichum gossypii = test: Fungal growth inhibition, treated disc on agar (COL GOS); type: cell-based; conditions: disc dipped in 500 mg/l, 29° C.; for inhibition at 500 µg/mL: Colletotrichum gossypii, read-out: Percent Growth Inhibition, COL GOS
Text: as §1, §2, §3

Helminthosporium sativum = test: Barley spot blotch, foliar treatment (HEL SAT); type: in vivo; conditions: foliar, 1,000 mg/l; for pest or weed control at 1000 µg/mL: Helminthosporium, foliar, 216 h, read-out: Percent Reduction of Disease, HEL SAT
Summary of the method: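 Six-day-old "Robust" barley, 10 plants per pot, sprayed at 1,000 mg/l (acetone solution emulsified in water with TWEEN 20) or left unsprayed as controls. All plants then inoculated with H. sativum spores, held 24 h at 99% humidity, then 8 days in greenhouse at 21° C. Percent control computed.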

Erysiphe polygoni = test: Powdery mildew on pinto bean, foliar application (ERY POL); type: in vivo; conditions: similar procedure as barley (1,000 mg/l); for pest or weed control at 1000 µg/mL: Erysiphe polygoni, read-out: Percent Reduction of Disease, ERY POL
Summary of the method: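 Pinto bean plants sprayed with compound emulsion (acetone or inert solvent, TWEEN 20, water) at 1,000 mg/l, or left unsprayed, dried, then inoculated with Erysiphe polygoni spores in a 21° C greenhouse. Disease scored; percent control computed against untreated controls.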

Pyricularia oryzae = test: whole plant or invertebrate; type: in vivo; conditions: for Percent Reduction of Disease, PYR ORY: barley, foliar, 1,000 mg/l; for pest or weed control at 1000 µg/mL: Pyricularia oryzae, in Hordeum vulgare, foliar, 216 h, read-out: Percent Reduction of Disease, PYR ORY, barley, foliar, 1,000 mg/l
Erysiphe graminis = test: Powdery mildew of barley, systemic root uptake (BMS); type: in vivo; conditions: 45 ml of 250 mg/l, 8 days after inoculation
Summary of the method: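 Pot soil of barley (BMS) and cucumber (CMS) plants was drenched with 45 ml of a 250 mg/l acetone/Tween 20 aqueous emulsion, with untreated plants as controls. Disease was scored on a rating scale that included intermediate grades.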

SMILES | Percent Growth Inhibition, PYT ULT (Pythium ultimum) | Percent Growth Inhibition, RHI SOL (Rhizoctonia solani) | Percent Growth Inhibition, SCL MIN (Scierotinia minor) | Percent Growth Inhibition, COL GOS (Colletotrichum gossypii) | Percent Reduction of Disease, HEL SAT (Helminthosporium sativum) | Percent Reduction of Disease, ERY POL (Erysiphe polygoni) | Percent Reduction of Disease, PYR ORY (Pyricularia oryzae) | Percent Reduction of Disease, BMS (Erysiphe graminis) | inhibition at 500 µg/mL (Pythium ultimum) | inhibition at 500 µg/mL (Rhizoctonia solani) | inhibition at 500 µg/mL (Scierotinia minor) | inhibition at 500 µg/mL (Colletotrichum gossypii) | pest or weed control at 1000 µg/mL (Helminthosporium sativum) | pest or weed control at 1000 µg/mL (Erysiphe polygoni) | pest or weed control at 1000 µg/mL (Pyricularia oryzae)
COc1ccc(CCC(C#N)(CC(C)C)c2ccccn2)cc1 (stereo not drawn) [Compound 29] | 0% | 70% | 94% | 95% | 100% | 100% | 85% | 0% |  |  |  |  |  |  | 
CCCCCC(C#N)(CCc1ccc(OC)cc1)c1ccccn1 (stereo not drawn) [Compound 30] | 0% | 10% | 100% | 80% | 90% | 100% | 100% | 0% |  |  |  |  |  |  | 
CCCCC(C#N)(CCc1ccc(OC)cc1)c1ccccn1 (stereo not drawn) [Compound 31] | 93% | 5% | 75% | 70% | 90% | 90% | 0% | 0% |  |  |  |  |  |  | 
N#CC(CCCc1ccc(Cl)cc1)(CC1CC1)c1ccccn1 (stereo not drawn) [Compound 32] | 0% | 0% | 98% | 97% | 90% | 100% | 100% | 0% |  |  |  |  |  |  | 
C=CCC(C#N)(CCc1ccc(C)cc1)c1cccnc1 (stereo not drawn) [Compound 33] |  |  |  |  |  |  |  | 40% | 50% | 0% | 100% | 100% | 100% | 100% | 85%
CCCCC(C#N)(CCc1ccc(OCC)cc1)c1cccnc1 (stereo not drawn) [Compound 35] | 0% |  | 88% |  |  |  |  | 0% |  | 40% |  | 97% | 100% | 100% | 55%
CCCCCCC(C#N)(CCc1ccc(OC)cc1)c1cccnc1 (stereo not drawn) [Compound 36] |  |  |  |  |  |  |  | 0% | 75% | 25% | 100% | 0% | 100% | 100% | 90%
COc1ccc(CCC(C#N)(CC2CC2)c2cccnc2)cc1 (stereo not drawn) [Compound 37] |  |  |  |  |  |  |  | 0% | 9% | 13% | 100% | 100% | 100% | 92% | 100%
C#CCC(C#N)(CCc1ccc(OC)cc1)c1cccnc1 (stereo not drawn) [Compound 38] |  |  |  |  |  |  |  | 0% | 100% | 0% | 46% | 100% | 100% | 92% | 17%
CC(C)CC(C#N)(CCc1ccc(F)cc1)c1cccnc1 (stereo not drawn) [Compound 39] |  |  |  |  |  |  |  | 0% | 44% | 11% | 42% | 75% | 100% | 92% | 100%
C=CCC(C#N)(CCc1ccc(OCC)cc1)c1cccnc1 (stereo not drawn) [Compound 40] |  |  |  |  |  |  |  | 0% | 61% | 0% | 100% | 100% | 100% | 92% | 92%
C#CCC(C#N)(CCc1ccc(F)cc1)c1cccnc1 (stereo not drawn) [Compound 41] |  |  |  |  |  |  |  | 0% | 9% | 26% | 48% | 100% | 100% | 100% | 92%
CCCCC(C#N)(CCc1ccc(OCC)cc1)c1cccnc1.Cl (stereo not drawn) [Compound 42, α-butyl-4-ethoxy-α-(3-pyridinyl)-benzenebutanenitrile hydrochloride] | 3% | 32% | 44% | 100% | 100% | 100% | 67% | 0% |  |  |  |  |  |  | 
CCOc1ccc(CCC(C#N)(CC(C)C)c2cccnc2)cc1 (stereo not drawn) [Compound 43] |  |  |  |  |  |  |  | 0% | 36% | 48% | 100% | 94% | 100% | 92% | 100%
CCCCCCC(C#N)(CCc1ccc(OCC)cc1)c1cccnc1 (stereo not drawn) [Compound 44] |  |  |  |  |  |  |  | 0% | 89% | 30% | 100% | 100% | 100% | 90% | 17%
CCCCCCC(C#N)(CCc1ccc(F)cc1)c1cccnc1 (stereo not drawn) [Compound 45] |  |  |  |  |  |  |  | 0% | 89% | 6% | 100% | 100% | 100% | 90% | 17%
CCCC(C#N)(CCc1ccc(OCC)cc1)c1cccnc1 (stereo not drawn) [Compound 46] |  |  |  |  |  |  |  | 0% | 59% | 8% | 100% | 100% | 100% | 90% | 0%
CC(C)=CCC(C#N)(CCc1ccc(F)cc1)c1cccnc1 (stereo not drawn) [Compound 47] |  |  |  |  |  |  |  | 0% | 100% | 45% | 100% | 100% | 100% | 90% | 0%
